Test results reported in patent publication US20230263822A1, “MODULATION OF FACTOR 11 EXPRESSION” (Ionis Pharmaceuticals, Inc., priority 2008, published 2023).
Strand notation (5' to 3'): a small letter for the sugar, then the base; units joined by * are phosphorothioate-linked, units joined directly phosphodiester-linked; [ ] holds rarer units or linkages, { } end groups; capitals alone tell only the bases. e = 2'-O-(2-methoxyethyl) (MOE); [5mC] = 5-methylcytosine; d = 2'-deoxy (DNA)

How the values were obtained:
[1] = system: Factor 11 protein; test: Factor 11 protein in monkey plasma by sandwich ELISA (Example 46); type: in vivo, cynomolgus monkeys; settings: for Inhibition of Factor 11 protein relative to the PBS control (percentage reduction): 25 mg/kg subcutaneously
Experimental: (§1) Groups, each consisting of two male and two female monkeys, were injected subcutaneously with 25 mg/kg of ISIS 416850, ISIS 449709, ISIS 445522, ISIS 449710, ISIS 449707, ISIS 449711, ISIS 449708, 416858, and ISIS 445531. Antisense oligonucleotide was administered to the monkeys at 25 mg/kg three times per week for week 1 and 25 mg/kg twice per week for weeks 2 to 8. A control group, consisting of two male and two female monkeys was injected subcutaneously with PBS according to the same dosing regimen. Body weights were taken 14 days and 7 days before the start of treatment and were then measured weekly throughout the treatment period. Blood samples were collected 14 days and 5 days before the start of treatment and subsequently several times during the dosing regimen for PT and aPTT measurements, and measurement of various hematologic factors. On day 55, the monkeys were euthanized by exsanguination while under deep anesthesia, and organs harvested for further analysis.
Plasma samples from all monkey groups taken on different days were analyzed by a sandwich-style ELISA assay (Affinity Biologicals Inc.) using an affinity-purified polyclonal anti-Factor 11 antibody as the capture antibody and a peroxidase-conjugated polyclonal anti-Factor 11 antibody as the detecting antibody. Monkey plasma was diluted 1:50 for the assay. Peroxidase activity was expressed by incubation with the substrate o-phenylenediamine. The color produced was quantified using a microplate reader at 490 nm and was considered to be proportional to the concentration of Factor 11 in the samples.
The results are presented in Table 147, expressed as percentage reduction relative to that of the PBS control.

[2] = system: IL-1β, IL-6, IFN-γ, TNF-α, IL-8, MIP-1α, MCP-1, MIP-1β, RANTES; test: Cytokine and chemokine assays in cynomolgus monkeys (Example 46); type: in vivo
Experimental: as §1
Blood samples obtained from all monkey groups were sent to Pierce Biotechnology (Woburn, Mass.) for measurements of chemokine and cytokine levels. Levels of IL-1β, IL-6, IFN-γ, and TNF-α were measured using the respective primate antibodies and levels of IL-8, MIP-1α, MCP-1, MIP-1β and RANTES were measured using the respective cross-reacting human antibodies. Measurements were taken 14 days before the start of treatment and on day 55, when the monkeys were euthanized.

[3] = Hematology assays in cynomolgus monkeys (Example 46); type: in vivo
Experimental: as §1

[4] = day-14 (before start of treatment)

ISIS 416850: MOE gapmer, nucleobases 1275 to 1318 of SEQ ID NO: 1 (Table 8) (antisense TGCACAGTTTCTGGCAGGCC; MOE gapmer, wing and gap sizes not given here)
Factor 11 protein levels in plasma ([1]; cynomolgus monkeys, 25 mg/kg): time-dependent decrease in protein levels
IFN-γ level ([2]; day 55): 19 pg/mL
IL-1ß level ([2]; day 55): 106 pg/mL
IL-6 level ([2]; day 55): 1 pg/mL
IL-8 level ([2]; day 55): 620 pg/mL
MCP-1 level ([2]; day 55): 887 pg/mL
MIP-1ß level ([2]; day 55): 50 pg/mL
MIP-1α level ([2]; day 55): 17 pg/mL
RANTES level ([2]; day 55): 27503 pg/mL
TNF-α level ([2]; day 55): 16 pg/mL
IFN-γ level [2, 4]: 115 pg/mL
IL-1ß level [2, 4]: 215 pg/mL
IL-6 level [2, 4]: 1 pg/mL
IL-8 level [2, 4]: 45 pg/mL
MCP-1 level [2, 4]: 434 pg/mL
MIP-1ß level [2, 4]: 31 pg/mL
MIP-1α level [2, 4]: 14 pg/mL
RANTES level [2, 4]: 4560 pg/mL
TNF-α level [2, 4]: 4 pg/mL
HCT ([3]; Day 17): 42%
MCH ([3]; Day 17): 23.7 pg
MCHC ([3]; Day 17): 31.3 g/dL
MCV ([3]; Day 17): 76 fL
RBC count ([3]; Day 17): 5.6e+06 µL⁻¹
WBC count ([3]; Day 17): 11000 µL⁻¹
hemoglobin content ([3]; Day 17): 13.3 g/dL
monocytes ([3]; Day 17): 3.2%
neutrophils ([3]; Day 17): 95%
platelet count ([3]; Day 17): 467 ×100/μL
HCT ([3]; Day 31): 42%
MCH ([3]; Day 31): 23.3 pg
MCHC ([3]; Day 31): 31.0 g/dL
MCV ([3]; Day 31): 75 fL
RBC count ([3]; Day 31): 5.6e+06 µL⁻¹
WBC count ([3]; Day 31): 12000 µL⁻¹
hemoglobin content ([3]; Day 31): 13.1 g/dL
monocytes ([3]; Day 31): 3.7%
neutrophils ([3]; Day 31): 100%
platelet count ([3]; Day 31): 507 ×100/μL
HCT ([3]; Day 45): 42%
MCH ([3]; Day 45): 22.7 pg
MCHC ([3]; Day 45): 31.0 g/dL
MCV ([3]; Day 45): 75 fL
RBC count ([3]; Day 45): 5.7e+06 µL⁻¹
WBC count ([3]; Day 45): 12000 µL⁻¹
hemoglobin content ([3]; Day 45): 13.1 g/dL
monocytes ([3]; Day 45): 3.8%
neutrophils ([3]; Day 45): 85%
platelet count ([3]; Day 45): 453 ×100/μL
HCT ([3]; Day 55): 40%
MCH ([3]; Day 55): 22.9 pg
MCHC ([3]; Day 55): 30.9 g/dL
MCV ([3]; Day 55): 73 fL
RBC count ([3]; Day 55): 5.6e+06 µL⁻¹
WBC count ([3]; Day 55): 10000 µL⁻¹
hemoglobin content ([3]; Day 55): 12.7 g/dL
monocytes ([3]; Day 55): 3.4%
neutrophils ([3]; Day 55): 108%
platelet count ([3]; Day 55): 396 ×100/μL
HCT ([3]; Day-5): 44%
MCH ([3]; Day-5): 23.7 pg
MCHC ([3]; Day-5): 30.7 g/dL
MCV ([3]; Day-5): 77 fL
RBC count ([3]; Day-5): 5.7e+06 µL⁻¹
WBC count ([3]; Day-5): 13000 µL⁻¹
hemoglobin content ([3]; Day-5): 13.5 g/dL
monocytes ([3]; Day-5): 2.9%
neutrophils ([3]; Day-5): 109%
platelet count ([3]; Day-5): 517 ×100/μL
HCT ([3]; Day-14): 41%
MCH ([3]; Day-14): 23.7 pg
MCHC ([3]; Day-14): 32.0 g/dL
MCV ([3]; Day-14): 74 fL
RBC count ([3]; Day-14): 5.5e+06 µL⁻¹
WBC count ([3]; Day-14): 12000 µL⁻¹
hemoglobin content ([3]; Day-14): 13.0 g/dL
monocytes ([3]; Day-14): 1.9%
neutrophils ([3]; Day-14): 88%
platelet count ([3]; Day-14): 462 ×100/μL

445522 (antisense eG*e[5mC]*eA*e[5mC]*eA*dG*dT*dT*dT*d[5mC]*dT*dG*dG*e[5mC]*eA*eG*eG*e[5mC]) [compound 445522]
Inhibition of Factor 11 protein relative to the PBS control (percentage reduction) ([1]; Day 10, plasma): 36%
Inhibition of Factor 11 protein relative to the PBS control (percentage reduction) ([1]; Day 17, plasma): 50%
Inhibition of Factor 11 protein relative to the PBS control (percentage reduction) ([1]; Day 24, plasma): 61%
Inhibition of Factor 11 protein relative to the PBS control (percentage reduction) ([1]; Day 31, plasma): 70%
Inhibition of Factor 11 protein relative to the PBS control (percentage reduction) ([1]; Day 38, plasma): 73%
Inhibition of Factor 11 protein relative to the PBS control (percentage reduction) ([1]; Day 45, plasma): 77%
Inhibition of Factor 11 protein relative to the PBS control (percentage reduction) ([1]; Day 52, plasma): 80%
Inhibition of Factor 11 protein relative to the PBS control (percentage reduction) ([1]; Day 55, plasma): 82%
Inhibition of Factor 11 protein relative to the PBS control (percentage reduction) ([1]; Day −5, plasma): 0%
Inhibition of Factor 11 protein relative to the PBS control (percentage reduction) ([1]; Day −14, plasma): 2%

445531 (antisense eG*eG*e[5mC]*eA*eT*dT*dG*dG*dT*dG*d[5mC]*dA*d[5mC]*eA*eG*eT*eT*eT) [compound 445531]
Inhibition of Factor 11 protein relative to the PBS control (percentage reduction) ([1]; Day 10, plasma): 9%
Inhibition of Factor 11 protein relative to the PBS control (percentage reduction) ([1]; Day 17, plasma): 22%
Inhibition of Factor 11 protein relative to the PBS control (percentage reduction) ([1]; Day 24, plasma): 23%
Inhibition of Factor 11 protein relative to the PBS control (percentage reduction) ([1]; Day 31, plasma): 27%
Inhibition of Factor 11 protein relative to the PBS control (percentage reduction) ([1]; Day 38, plasma): 29%
Inhibition of Factor 11 protein relative to the PBS control (percentage reduction) ([1]; Day 45, plasma): 32%
Inhibition of Factor 11 protein relative to the PBS control (percentage reduction) ([1]; Day 52, plasma): 32%
Inhibition of Factor 11 protein relative to the PBS control (percentage reduction) ([1]; Day 55, plasma): 37%
Inhibition of Factor 11 protein relative to the PBS control (percentage reduction) ([1]; Day −5, plasma): 1%
Inhibition of Factor 11 protein relative to the PBS control (percentage reduction) ([1]; Day −14, plasma): 0%

ISIS 449707: 3-8-3, 4-8-4, 2-10-2, 3-10-3 or 4-10-4 MOE microwalk gapmer (Table 46) (antisense e[5mC]*eA*e[5mC]*eA*dG*dT*dT*dT*d[5mC]*dT*dG*dG*e[5mC]*eA*eG*eG)
IFN-γ level ([2]; day 55): 24 pg/mL
IL-1ß level ([2]; day 55): 97 pg/mL
IL-6 level ([2]; day 55): 1 pg/mL
IL-8 level ([2]; day 55): 48 pg/mL
MCP-1 level ([2]; day 55): 264 pg/mL
MIP-1ß level ([2]; day 55): 49 pg/mL
MIP-1α level ([2]; day 55): 12 pg/mL
RANTES level ([2]; day 55): 1193 pg/mL
TNF-α level ([2]; day 55): 16 pg/mL
IFN-γ level [2, 4]: 34 pg/mL
IL-1ß level [2, 4]: 115 pg/mL
IL-6 level [2, 4]: 1 pg/mL
IL-8 level [2, 4]: 106 pg/mL
MCP-1 level [2, 4]: 294 pg/mL
MIP-1ß level [2, 4]: 13 pg/mL
MIP-1α level [2, 4]: 16 pg/mL
RANTES level [2, 4]: 3014 pg/mL
TNF-α level [2, 4]: 6 pg/mL
HCT ([3]; Day 17): 42%
MCH ([3]; Day 17): 22.1 pg
MCHC ([3]; Day 17): 30.0 g/dL
MCV ([3]; Day 17): 74 fL
RBC count ([3]; Day 17): 5.7e+06 µL⁻¹
WBC count ([3]; Day 17): 12000 µL⁻¹
hemoglobin content ([3]; Day 17): 12.7 g/dL
monocytes ([3]; Day 17): 3.2%
neutrophils ([3]; Day 17): 80%
platelet count ([3]; Day 17): 408 ×100/μL
HCT ([3]; Day 31): 43%
MCH ([3]; Day 31): 22.1 pg
MCHC ([3]; Day 31): 29.8 g/dL
MCV ([3]; Day 31): 74 fL
RBC count ([3]; Day 31): 5.7e+06 µL⁻¹
WBC count ([3]; Day 31): 11000 µL⁻¹
hemoglobin content ([3]; Day 31): 12.7 g/dL
monocytes ([3]; Day 31): 4.2%
neutrophils ([3]; Day 31): 89%
platelet count ([3]; Day 31): 408 ×100/μL
HCT ([3]; Day 45): 43%
MCH ([3]; Day 45): 22.6 pg
MCHC ([3]; Day 45): 29.8 g/dL
MCV ([3]; Day 45): 73 fL
RBC count ([3]; Day 45): 5.9e+06 µL⁻¹
WBC count ([3]; Day 45): 12000 µL⁻¹
hemoglobin content ([3]; Day 45): 12.9 g/dL
monocytes ([3]; Day 45): 4.0%
neutrophils ([3]; Day 45): 89%
platelet count ([3]; Day 45): 424 ×100/μL
HCT ([3]; Day 55): 42%
MCH ([3]; Day 55): 21.9 pg
MCHC ([3]; Day 55): 30.0 g/dL
MCV ([3]; Day 55): 73 fL
RBC count ([3]; Day 55): 5.8e+06 µL⁻¹
WBC count ([3]; Day 55): 8000 µL⁻¹
hemoglobin content ([3]; Day 55): 12.6 g/dL
monocytes ([3]; Day 55): 4.8%
neutrophils ([3]; Day 55): 98%
platelet count ([3]; Day 55): 399 ×100/μL
HCT ([3]; Day-5): 43%
MCH ([3]; Day-5): 22.2 pg
MCHC ([3]; Day-5): 29.8 g/dL
MCV ([3]; Day-5): 75 fL
RBC count ([3]; Day-5): 5.8e+06 µL⁻¹
WBC count ([3]; Day-5): 11000 µL⁻¹
hemoglobin content ([3]; Day-5): 12.8 g/dL
monocytes ([3]; Day-5): 2.3%
neutrophils ([3]; Day-5): 106%
platelet count ([3]; Day-5): 464 ×100/μL
HCT ([3]; Day-14): 40%
MCH ([3]; Day-14): 22.2 pg
MCHC ([3]; Day-14): 31.4 g/dL
MCV ([3]; Day-14): 71 fL
RBC count ([3]; Day-14): 5.7e+06 µL⁻¹
WBC count ([3]; Day-14): 13000 µL⁻¹
hemoglobin content ([3]; Day-14): 12.7 g/dL
monocytes ([3]; Day-14): 1.3%
neutrophils ([3]; Day-14): 85%
platelet count ([3]; Day-14): 383 ×100/μL
